Experimental findings from publication PMC8634379, “From the Design to the In Vivo Evaluation of Benzohomoadamantane-Derived Soluble Epoxide Hydrolase Inhibitors for the Treatment of Acute Pancreatitis” (Journal of Medicinal Chemistry, 2021) are described below.

In general, IC50 refers to the concentration that inhibits the measured activity by half. The solubility is how much of the substance goes into solution per volume. Read a high solubility as a readily soluble substance.

In brackets after ≈: the same amount, converted by molar mass.

The target of one data set is CYP 3A4 (Homo sapiens, UniProt P08684). Put plainly: Cytochrome P450 inhibition, fluorescence detection. The data set is classed as in vitro ADME. To be noted: at 10 μM; for CYP 3A4 (BFC) inhibition: substrate benzyloxytrifluoromethylcoumarin; for CYP 3A4 (DBF) inhibition: substrate dibenzylfluorescein. The procedure: The objective of this study was to screen the inhibition potential of the compounds using recombinant human cytochrome P450 enzymes CYP3A4 (BFC and DBF substrates) and probe substrates with fluorescent detection. Incubations were conducted in a 200 μL volume in 96-well microtiter plates (COSTAR 3915). The addition of the mixture buffer-cofactor (KH2PO4 buffer, 1.3 mM NADP, 3.3 mM MgCl2, 0.4 U/mL glucose-6-phosphate dehydrogenase), control supersomes, the Standard inhibitor Ketoconazole (Sigma K1003), and previously diluted compounds to plates was carried out by a liquid handling station (Zephyr Caliper). The plate was then preincubated at 37 °C for 5 min in a 100 μL volume, and reaction was initiated by the addition of a prewarmed enzyme/substrate (E/S) mix. The E/S mix contained buffer (KH2PO4), enzyme (CYP), substrate 7-benzyloxytrifluoromethyl coumarin (7-BFC), and dibenzylfluorescein (DBF) in a reaction volume of 200 μL. Reactions were terminated after various times depending on the substrate by addition of STOP solution (ACN/TrisHCl 0.5 M 80:20 (BFC) or 2 N NaOH for CYP3A4 (DBF). Fluorescence per well was measured using a fluorescence plate reader (Tecan M1000 pro) and percentage of inhibition was calculated.
Chain of CYP 3A4 (P08684 whole entry): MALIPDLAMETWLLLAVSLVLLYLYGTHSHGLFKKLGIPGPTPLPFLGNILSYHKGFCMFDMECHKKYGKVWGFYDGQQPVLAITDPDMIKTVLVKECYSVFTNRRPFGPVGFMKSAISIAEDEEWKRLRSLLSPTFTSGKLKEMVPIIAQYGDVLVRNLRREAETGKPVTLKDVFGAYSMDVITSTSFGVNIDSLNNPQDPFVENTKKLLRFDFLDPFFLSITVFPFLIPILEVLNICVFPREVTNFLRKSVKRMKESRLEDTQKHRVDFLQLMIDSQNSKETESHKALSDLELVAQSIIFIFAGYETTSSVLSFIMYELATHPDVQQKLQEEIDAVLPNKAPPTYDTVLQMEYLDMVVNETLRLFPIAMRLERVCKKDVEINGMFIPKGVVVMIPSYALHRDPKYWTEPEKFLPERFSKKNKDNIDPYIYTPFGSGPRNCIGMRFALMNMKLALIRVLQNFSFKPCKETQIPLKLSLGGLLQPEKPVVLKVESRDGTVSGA

A further data set deals with T1, human COX-2 (hCOX-2) (Homo sapiens, UniProt P35354).
T1 sequence (P35354 18-604): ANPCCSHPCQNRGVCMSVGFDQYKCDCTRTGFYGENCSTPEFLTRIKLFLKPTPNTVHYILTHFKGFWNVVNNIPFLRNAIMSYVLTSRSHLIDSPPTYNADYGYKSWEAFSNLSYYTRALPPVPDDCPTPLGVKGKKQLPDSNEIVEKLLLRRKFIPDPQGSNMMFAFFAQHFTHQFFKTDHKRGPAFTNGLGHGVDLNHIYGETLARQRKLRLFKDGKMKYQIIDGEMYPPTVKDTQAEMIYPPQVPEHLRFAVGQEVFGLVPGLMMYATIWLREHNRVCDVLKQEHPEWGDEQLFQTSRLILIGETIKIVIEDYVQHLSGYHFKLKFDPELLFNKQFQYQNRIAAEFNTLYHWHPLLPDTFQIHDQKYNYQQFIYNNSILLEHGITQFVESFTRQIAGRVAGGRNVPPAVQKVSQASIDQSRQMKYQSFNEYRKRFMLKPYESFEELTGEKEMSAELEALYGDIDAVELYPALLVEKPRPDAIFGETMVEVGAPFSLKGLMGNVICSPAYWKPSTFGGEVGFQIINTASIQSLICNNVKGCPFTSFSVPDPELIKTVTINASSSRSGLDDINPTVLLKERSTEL
The experiment in a line: Inhibition of hCOX-2 (Eurofins, catalogue reference 4186). The data set is classed as biochemical. The conditions noted are these: for IC50: performed by Eurofins.

Data set [1] can be described thus: Solubility in 1% DMSO: 99% PBS (nephelometry). The data set is classed as physicochemical. To be noted: PBS with 1% DMSO, 1% DMSO: 99% PBS buffer solution, 37 °C. The procedure: A 10 mM stock solution of the compound was serially diluted in 100% DMSO and 1 μL of this solution was added to a 384-well UV-transparent plate (Greiner) containing 99 μL of PBS. The plate was incubated at 37 °C for 2 h and the light scattering was measured in a Nephelostar Plus reader (BMG LABTECH). The data were fitted to a segmented linear regression for measuring the compound solubility.

The next data set addresses CYP 2D6 (Homo sapiens, UniProt P10635). The experiment in a line: Cytochrome P450 inhibition, fluorescence detection. Type of data set: in vitro ADME. The conditions noted are these: at 10 μM.
The next data set is described as follows: Microsomal stability. Type of data set: in vitro ADME, human. To be noted: after 60 min incubation, NADP, 37 °C. The procedure: The human, rat, and mice recombinant microsomes employed were purchased from Tebu–Xenotech. […] Samples (75 μL) were taken from each well at 0, 10, 20, 40, and 60 min and transferred to a plate containing 4 °C 75 μL of acetonitrile and 30 μL of 0.5% formic acid in water were added for improving the chromatographic conditions. The plate was centrifuged ([…], 30 min) and supernatants were taken and analyzed by an ultraperformance liquid chromatograph–tandem mass spectrometer (Xevo-TQD, Waters) by employing a BEH C18 column and an isocratic gradient of 0.1% formic acid in water: 0.1% formic acid acetonitrile (60:40). The metabolic stability of the compounds was calculated from the logarithm of the remaining compounds at each of the time points studied.

A further data set deals with T2, murine sEH (Mus musculus, UniProt P34914).
T2 sequence (P34914 1-554): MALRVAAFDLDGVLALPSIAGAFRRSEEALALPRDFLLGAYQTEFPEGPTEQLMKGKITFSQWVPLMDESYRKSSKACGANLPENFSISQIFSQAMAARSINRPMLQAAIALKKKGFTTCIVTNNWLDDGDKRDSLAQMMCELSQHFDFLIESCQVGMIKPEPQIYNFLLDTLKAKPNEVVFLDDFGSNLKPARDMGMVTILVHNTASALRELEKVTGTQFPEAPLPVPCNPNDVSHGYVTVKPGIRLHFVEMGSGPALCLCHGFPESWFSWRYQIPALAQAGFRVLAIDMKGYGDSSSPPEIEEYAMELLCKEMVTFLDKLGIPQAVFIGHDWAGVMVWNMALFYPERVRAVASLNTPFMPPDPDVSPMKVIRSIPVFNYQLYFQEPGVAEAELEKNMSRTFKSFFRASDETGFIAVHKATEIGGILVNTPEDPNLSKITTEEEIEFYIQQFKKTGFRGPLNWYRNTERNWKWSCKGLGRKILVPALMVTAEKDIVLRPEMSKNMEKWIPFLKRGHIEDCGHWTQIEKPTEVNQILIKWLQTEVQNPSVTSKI
Put plainly: sEH inhibition, fluorescent-based assay (CMNPC substrate). Type of data set: biochemical. To be noted: purified recombinant enzyme, average of three replicates. The procedure: The IC50 values reported herein were determined using a fluorescent-based assay (CMNPC as substrate).[16] The fluorescent assay was used with purified recombinant human, mouse, or rat sEH proteins. The enzymes were incubated at 30 °C with the inhibitors ([I]final = 0.4–100,000 nM) for 5 min in 100 mM sodium phosphate buffer (200 μL, pH 7.4) containing 0.1 mg/mL of BSA and 1% of DMSO. The substrate (CMNPC) was then added ([S]final = 5 μM). […] Results were obtained by regression analysis from a linear region of the curve.

Chain of CYP 2D6 (P10635 whole entry): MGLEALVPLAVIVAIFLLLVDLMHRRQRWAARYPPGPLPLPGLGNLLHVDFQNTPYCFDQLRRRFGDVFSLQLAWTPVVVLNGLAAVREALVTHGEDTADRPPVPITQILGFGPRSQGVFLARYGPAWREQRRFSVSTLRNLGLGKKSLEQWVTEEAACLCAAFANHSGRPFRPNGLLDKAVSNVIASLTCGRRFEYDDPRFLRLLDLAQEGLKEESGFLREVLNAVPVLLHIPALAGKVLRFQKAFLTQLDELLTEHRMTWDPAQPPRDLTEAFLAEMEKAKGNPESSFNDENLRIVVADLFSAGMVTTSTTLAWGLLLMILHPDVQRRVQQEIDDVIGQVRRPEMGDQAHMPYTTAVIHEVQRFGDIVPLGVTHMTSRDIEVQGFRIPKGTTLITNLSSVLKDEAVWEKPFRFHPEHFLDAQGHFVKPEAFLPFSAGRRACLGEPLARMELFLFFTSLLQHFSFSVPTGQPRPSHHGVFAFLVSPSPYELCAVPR

With `CC12CC3CC(NC(=O)N[C@H]4CC[C@H](Oc5ccc(C(=O)O)cc5)CC4)(CC(C1)c1ccccc13)C2` [Compound 20, 4-[((1r,4r)-4-(3-(9-Methyl-5,6,8,9,10,11-Hexahydro-7H-5,9:7,11-dimethanobenzo[9]annulen-7-yl)ureido)cyclohexyl)oxy]benzoic Acid], at CYP 3A4, the “CYP 3A4 (BFC) inhibition” value is listed as 2 ± 2% and the “CYP 3A4 (DBF) inhibition” value turned out to be 14 ± 1%. Moreover, on human COX-2 (hCOX-2), the “inhibition of hCOX-2 (selectivity)” value is “Neither 20 nor the halogenated analogues 22 and 23 significantly inhibited”; the IC50 is > 10000 nM. The same molecule had a solubility at 2 h in data set [1] of 4 µM (≈ 1.95 µg/mL). Moreover, the “CYP 2D6 inhibition” value at CYP 2D6 is recorded as 1 ± 1%. Besides, the “microsomal stability, percentage of remaining compound (human)” value in the data set “Microsomal stability” is recorded as 70%. Moreover, at murine sEH, the IC50 is 9.9 nM.

Consider `O=C(NC12CC3CC(Cl)(CC(C1)c1ccccc13)C2)N[C@H]1CC[C@H](Oc2ccc(C(=O)O)cc2)CC1` [Compound 22, 4-[((1r,4r)-4-(3-(9-Chloro-5,6,8,9,10,11-hexahydro-7H-5,9:7,11-dimethanobenzo[9]annulen-7-yl)ureido)cyclohexyl)oxy]benzoic Acid], for which, at CYP 3A4, the “CYP 3A4 (BFC) inhibition” value was found to be 1 ± 2% and the “CYP 3A4 (DBF) inhibition” value worked out at 52 ± 4%. Besides, the IC50 at human COX-2 (hCOX-2) is > 10000 nM. This molecule also yielded a solubility at 2 h in data set [1] of 13 µM (≈ 6.62 µg/mL). In addition, the “CYP 2D6 inhibition” value at CYP 2D6 is given as 11 ± 3%. Besides, the “microsomal stability, percentage of remaining compound (human)” value in “Microsomal stability” was determined as 89%.

For the molecule `O=C(NC12CC3CC(F)(CC(C1)c1ccccc13)C2)N[C@H]1CC[C@H](Oc2ccc(C(=O)O)cc2)CC1` [Compound 23, 4-[((1r,4r)-4-(3-(9-Fluoro-5,6,8,9,10,11-hexahydro-7H-5,9:7,11-dimethanobenzo[9]annulen-7-yl)ureido)cyclohexyl)oxy]benzoic Acid], on human COX-2 (hCOX-2), the “inhibition of hCOX-2 (selectivity)” value was “Neither 20 nor the halogenated analogues 22 and 23 significantly inhibited”. Also, the results for the IC50 at human COX-2 (hCOX-2) and at murine sEH were > 10000 nM and 0.5 nM, respectively. In data set [1], the solubility at 2 h was 7 µM (≈ 3.45 µg/mL). For the same molecule, the “microsomal stability, percentage of remaining compound (human)” value in the data set “Microsomal stability” stood at 77%.
